{
  "source": "patent EP0580185A1",
  "about": "“Medicaments” (THE WELLCOME FOUNDATION LIMITED, priority 1988, dated 1990)",
  "key": {"Pneumocystis carinii": {"system": "Pneumocystis carinii", "experiment": "Prophylaxis of Pneumocystis carinii pneumonitis in dexamethasone-treated rats, lung histopathology score", "type": "in vivo", "details": "for No.with P. carinii Pneumonitis Total: per rats evaluated", "method": "A: 2-[trans-4-(4-chlorophenyl)cyclohexyl]-3-hydroxy-1,4-naphthoquinone B: 2-[cis-4-(4-chlorophenyl)cyclohexyl]-3-hydroxy-1,4-naphthoquinone C: 2-[4-(4-chlorophenyl)cyclohexyl]-3-chloro-1,4-naphthoquinone D: 2-(4-t-butylcyclohexyl)-3-hydroxy-1,4-naphthoquinone E: 2-(4-t-butylcyclohexylmethyl)-3-hydroxy-1,4-naphthoquinone a) Prophylaxis Groups of 10 rats were treated with dexamethasone to allow latent Pneumocystis carinii infection to develop. Tetracycline was also administered to protect against bacterial infections. Test compound A was administered, by gavage, from day 4 of the dexamethasone treatment, at a dose of 100 mg/kg/day. Two control groups of rats were treated with dexamethasone and tetracycline only. A further group of rats was given cotrimoxazole (trimethoprim + sulphamethoxazole, 50 + 250 mg/kg/day, orally) in place of the test compound. At the end of the test period the animals were sacrificed and autopsies carried out. The lungs were removed and the right lung bisected. An imprint was made onto microscope slides and stained with toluidine blue. One half of the lung was placed in formalin, processed in paraffin blocks, sectioned and stained by the Gomori methanamine silver nitrate method. After autopsy the extent of P.carinii pneumonitis was scored under coded study as none if no organism seen; 1+ if P.carinii cysts seen sparsely distributed with less than one per 25 high power field (h.p.f.); 2+ if focal areas of P.carinii pneumonitis surrounded by 10 to 25 h.p.f of normal lung and 3+ if lung diffusely and extensively involved with organisms in almost all h.p.f.s.\nb) Prophylaxis A further series of tests was carried out using the same general method as described above. Test compound A was administered at various dose levels, by gavage and in the diet."}, "Plasmodium Falciparum": {"system": "Plasmodium Falciparum", "experiment": "Activity against Plasmodium falciparum in vitro, G-3H-hypoxanthine incorporation", "type": "cell-based", "details": "cultures incubated for 48 hours, RPMI 1640 medium + 10% human plasma, read-out: In vitro IC₅₀", "method": "The test method was modification of that described by Desjardins et al., Antimicrob. Agents and Chemotherapy 1979, 16, 710-718. Compounds were dissolved in ethanol at a concentration of 4.8x10⁻³M and dilutions down to 1x10⁻⁴M were made. The drug solutions were serially diluted using RPMI 1640 medium + 10% human plasma in microtitration plates. Parasitised and fresh red blood cells were added, together with G-³H-hypoxanthine, in RPMI 1640 medium + 10% human plasma and the cultures incubated for 48 hours. Cultures were then harvested, the particulate contents collected on a glass fibre filter paper and washed copiously with water. The filter papers were dried and the radioactivity measured using a scintillation counter. Infected untreated and uninfected untreated cultures were included as controls."}, "Plasmodium yoelii": {"system": "Plasmodium yoelii", "experiment": "Activity against Plasmodium yoelii in vivo, tail-blood smears at 96 hours", "set-up": "species or system mice", "details": "for ED50: Plasmodium yoelii, in Mus musculus, 96 h", "method": "The naphthoquinone was suspended in 0.25% (w/v) celacol in water by milling for 16-24 hours at 26°C. The suspensions were subsequently serially diluted with 0.25% (w/v) celacol in water. At time 0, 0.1 ml of a suspension of 5x10⁶ P.yoelii-parasitised red blood cells/ml of phosphate saline were injected intravenously into 15-20 g mice through a tail vein. Groups of 5 mice per treatment were dosed orally at times 6, 22, 30, 46, 54, 70 and 78 hours with 0.2 ml of the drug suspension. The compound of Example 4 was also administered intravenously. Tail-blood smears were taken at 96 hours, stained with Giemsa and the percentage of red blood cells infected determined and compared to untreated, infected controls. Percent inhibition was correllated with dose to provide ED values."}, "[1]": {"experiment": "Water-solubility compared with the parent compound", "type": "physicochemical", "details": "as compared with the parent compound of formula (V)"}, "[2]": {"system": "Pneumocystis carinii pneumonia", "details": "cited from earlier work"}, "[3]": {"details": "100 mg per kg/day, gavage, group of 10 rats"}, "[4]": {"details": "100 mg per kg/day, gavage, group of 15 rats"}, "[5]": {"details": "100 mg/kg/day by gavage from day 4 of dexamethasone treatment"}, "[6]": {"details": "po, dosed orally at 6, 22, 30, 46, 54, 70 and 78 hours, read-out: In vivo ED₅₀ oral"}},
  "note": "Like-named read-outs stand apart in the source and are kept apart here.",
  "data": [
    {"smiles": "O=C1C(O)=C([C@H]2CC[C@H](c3ccc(Cl)cc3)CC2)C(=O)c2ccccc21", "note": "[Example 1C, 2-[trans-4-(4-Chlorophenyl)cyclohexyl]-3-hydroxy-1,4-naphthoquinone]", "values": [
      {"measurement": "No.with P. carinii Pneumonitis 1+", "setting": "Pneumocystis carinii; 10 mg per kg/day, gavage", "value": 1},
      {"measurement": "No.with P. carinii Pneumonitis 2+", "setting": "Pneumocystis carinii; 10 mg per kg/day, gavage", "value": 0},
      {"measurement": "No.with P. carinii Pneumonitis 3+", "setting": "Pneumocystis carinii; 10 mg per kg/day, gavage", "value": 8},
      {"measurement": "No.with P. carinii Pneumonitis None", "setting": "Pneumocystis carinii; 10 mg per kg/day, gavage", "value": 1},
      {"measurement": "No.with P. carinii Pneumonitis Total", "setting": "Pneumocystis carinii; 10 mg per kg/day, gavage", "value": "9/10"},
      {"measurement": "No.with P. carinii Pneumonitis 1+", "setting": "Pneumocystis carinii; 25 mg per kg/day, gavage", "value": 2},
      {"measurement": "No.with P. carinii Pneumonitis 2+", "setting": "Pneumocystis carinii; 25 mg per kg/day, gavage", "value": 1},
      {"measurement": "No.with P. carinii Pneumonitis 3+", "setting": "Pneumocystis carinii; 25 mg per kg/day, gavage", "value": 4},
      {"measurement": "No.with P. carinii Pneumonitis None", "setting": "Pneumocystis carinii; 25 mg per kg/day, gavage", "value": 1},
      {"measurement": "No.with P. carinii Pneumonitis Total", "setting": "Pneumocystis carinii; 25 mg per kg/day, gavage", "value": "7/8"},
      {"measurement": "No.with P. carinii Pneumonitis 1+", "setting": "Pneumocystis carinii; 50 mg per kg/day, gavage", "value": 0},
      {"measurement": "No.with P. carinii Pneumonitis 2+", "setting": "Pneumocystis carinii; 50 mg per kg/day, gavage", "value": 1},
      {"measurement": "No.with P. carinii Pneumonitis 3+", "setting": "Pneumocystis carinii; 50 mg per kg/day, gavage", "value": 1},
      {"measurement": "No.with P. carinii Pneumonitis None", "setting": "Pneumocystis carinii; 50 mg per kg/day, gavage", "value": 7},
      {"measurement": "No.with P. carinii Pneumonitis Total", "setting": "Pneumocystis carinii; 50 mg per kg/day, gavage", "value": "2/9"},
      {"measurement": "No.with P. carinii Pneumonitis 1+", "setting": "Pneumocystis carinii; [3]", "value": 1},
      {"measurement": "No.with P. carinii Pneumonitis 2+", "setting": "Pneumocystis carinii; [3]", "value": 0},
      {"measurement": "No.with P. carinii Pneumonitis 3+", "setting": "Pneumocystis carinii; [3]", "value": 0},
      {"measurement": "No.with P. carinii Pneumonitis None", "setting": "Pneumocystis carinii; [3]", "value": 8},
      {"measurement": "No.with P. carinii Pneumonitis Total", "setting": "Pneumocystis carinii; [3]", "value": "1/9"},
      {"measurement": "No.with P. carinii Pneumonitis 1+", "setting": "Pneumocystis carinii; [4]", "value": 0},
      {"measurement": "No.with P. carinii Pneumonitis 2+", "setting": "Pneumocystis carinii; [4]", "value": 0},
      {"measurement": "No.with P. carinii Pneumonitis 3+", "setting": "Pneumocystis carinii; [4]", "value": 0},
      {"measurement": "No.with P. carinii Pneumonitis None", "setting": "Pneumocystis carinii; [4]", "value": 9},
      {"measurement": "No.with P. carinii Pneumonitis Total", "setting": "Pneumocystis carinii; [4]", "value": "0/9"},
      {"measurement": "No.with P. carinii Pneumonitis 1+", "setting": "Pneumocystis carinii; 100 mg per kg/day, rations", "value": 0},
      {"measurement": "No.with P. carinii Pneumonitis 2+", "setting": "Pneumocystis carinii; 100 mg per kg/day, rations", "value": 0},
      {"measurement": "No.with P. carinii Pneumonitis 3+", "setting": "Pneumocystis carinii; 100 mg per kg/day, rations", "value": 0},
      {"measurement": "No.with P. carinii Pneumonitis None", "setting": "Pneumocystis carinii; 100 mg per kg/day, rations", "value": 10},
      {"measurement": "No.with P. carinii Pneumonitis Total", "setting": "Pneumocystis carinii; 100 mg per kg/day, rations", "value": "0/10"},
      {"measurement": "No of rats with P.carinii Pneumonitis 1+", "setting": "Pneumocystis carinii; [5]", "value": 0},
      {"measurement": "No of rats with P.carinii Pneumonitis 2+", "setting": "Pneumocystis carinii; [5]", "value": 0},
      {"measurement": "No of rats with P.carinii Pneumonitis 3+", "setting": "Pneumocystis carinii; [5]", "value": 0},
      {"measurement": "No of rats with P.carinii Pneumonitis None", "setting": "Pneumocystis carinii; [5]", "value": 8},
      {"measurement": "No of rats with PCP/No of rats tested", "setting": "Pneumocystis carinii; [5]", "value": "0/8"},
      {"measurement": "No.with P. carinii Pneumonitis 1+", "setting": "Pneumocystis carinii; 200 mg per kg/day, rations", "value": 0},
      {"measurement": "No.with P. carinii Pneumonitis 2+", "setting": "Pneumocystis carinii; 200 mg per kg/day, rations", "value": 0},
      {"measurement": "No.with P. carinii Pneumonitis 3+", "setting": "Pneumocystis carinii; 200 mg per kg/day, rations", "value": 0},
      {"measurement": "No.with P. carinii Pneumonitis None", "setting": "Pneumocystis carinii; 200 mg per kg/day, rations, Gomori-Grocott stain", "value": 9},
      {"measurement": "No.with P. carinii Pneumonitis Total", "setting": "Pneumocystis carinii; 200 mg per kg/day, rations", "value": "0/9"},
      {"measurement": "IC50", "setting": "Plasmodium Falciparum", "value": 2, "unit": "nM"},
      {"measurement": "ED50", "setting": "Plasmodium yoelii; [6]", "value": 0.03, "unit": "mg/kg"}
    ]},
    {"smiles": "COC1=C([C@H]2CC[C@H](c3ccc(Cl)cc3)CC2)C(=O)c2ccccc2C1=O", "note": "[Example 2, 2-Methoxy-3-[trans-4-(4-chlorophenyl)cyclohexyl]-1,4-naphthoquinone]", "values": [
      {"measurement": "IC50", "setting": "Plasmodium Falciparum", "value": 360, "unit": "nM"},
      {"measurement": "ED50", "setting": "Plasmodium yoelii; [6]", "value": 5.8, "unit": "mg/kg"}
    ]},
    {"smiles": "NC1=C([C@H]2CC[C@H](c3ccc(Cl)cc3)CC2)C(=O)c2ccccc2C1=O", "note": "[Example 3, 2-Amino-3-[trans-4-(4-chlorophenyl)cyclohexyl]-1,4-naphthoquinone]", "values": [
      {"measurement": "IC50", "setting": "Plasmodium Falciparum", "value": 1140, "unit": "nM"},
      {"measurement": "ED50", "setting": "Plasmodium yoelii; [6]", "value": 1.26, "unit": "mg/kg"}
    ]},
    {"smiles": "CN(C)CCCOC1=C([C@H]2CC[C@H](c3ccc(Cl)cc3)CC2)C(=O)c2ccccc2C1=O.Cl", "note": "[Example 4, 2-[trans-4-(4-Chlorophenyl)cyclohexyl]-3-(3-dimethylaminopropoxy)-1,4-naphthoquinone hydrochloride]", "values": [
      {"measurement": "IC50", "setting": "Plasmodium Falciparum", "value": 59, "unit": "nM"},
      {"measurement": "ED50", "setting": "Plasmodium yoelii; iv, administered intravenously, read-out: In vivo ED₅₀ i.v.", "value": 2.08, "unit": "mg/kg"},
      {"measurement": "ED50", "setting": "Plasmodium yoelii; [6]", "value": 0.61, "unit": "mg/kg"},
      {"measurement": "In vivo ED₅₀ oral", "setting": "Plasmodium yoelii; dosed orally at 6, 22, 30, 46, 54, 70 and 78 hours, hydrochloride, 5760 min", "value": 0.68, "unit": "mg/kg"}
    ]},
    {"smiles": "CC(=O)OC1=C([C@H]2CC[C@H](c3ccc(Cl)cc3)CC2)C(=O)c2ccccc2C1=O", "note": "[Example 5, 2-Acetoxy-3-[trans-4-(4-chlorophenyl)cyclohexyl]-1,4-naphthoquinone]", "values": [
      {"measurement": "IC50", "setting": "Plasmodium Falciparum", "value": 68, "unit": "nM"},
      {"measurement": "ED50", "setting": "Plasmodium yoelii; [6]", "value": 0.12, "unit": "mg/kg"},
      {"measurement": "water-solubility", "setting": "[1]", "value": "improved"}
    ]},
    {"smiles": "CCOC(=O)OC1=C([C@H]2CC[C@H](c3ccc(Cl)cc3)CC2)C(=O)c2ccccc2C1=O", "note": "[Example 6, 2-Ethoxycarbonyloxy-3-[trans-4-(4-chlorophenyl)cyclohexyl]-1,4 naphthoquinone]", "values": [
      {"measurement": "IC50", "setting": "Plasmodium Falciparum", "value": 80, "unit": "nM"},
      {"measurement": "ED50", "setting": "Plasmodium yoelii; [6]", "value": 0.09, "unit": "mg/kg"}
    ]},
    {"smiles": "CN(C)c1ccc(C(=O)OC2=C([C@H]3CC[C@H](c4ccc(Cl)cc4)CC3)C(=O)c3ccccc3C2=O)cc1", "note": "[Example 7, 2-[trans-4-(4-Chlorophenyl)cyclohexyl]-3-(4-dimethylaminobenzoyloxy)-1,4-naphthoquinone]", "values": [
      {"measurement": "IC50", "setting": "Plasmodium Falciparum", "value": 220, "unit": "nM"},
      {"measurement": "ED50", "setting": "Plasmodium yoelii; [6]", "value": 0.12, "unit": "mg/kg"}
    ]},
    {"smiles": "N=C(N)c1ccc(OCCCCCOc2ccc(C(=N)N)cc2)cc1", "note": "[pentamidine]", "values": [
      {"measurement": "incidence of adverse reactions", "setting": "[2]; AIDS patients", "value": "around 50%"},
      {"measurement": "effective in AIDS patients", "setting": "[2]; treatment of Pneumocystis carinii pneumonia", "value": "50-70%"}
    ]}
  ]
}
